Measurements as given in US11439148B2, “Pyrimidine derivatives” (SYNGENTA PARTICIPATIONS AG, priority 2017, dated 2022).
Values joined by “and” are separate entries in the source; they are usually repeats but may differ in a detail not shown here. Equal entries are not always repeated.

Tested on: Setaria viridis (SETVI)
Test: Adjuvant efficacy with fomesafen, glasshouse spray test
Assay type: in vivo
Details: fomesafen sodium salt SL, mean over 100 and 200 g/ha and 3 replicates; adjuvant 0.2% v/v (none in No Adjuvant rows); % leaf area killed, 21 days after application; Tests 1-4 separate runs
Procedure: (§1) The efficacy of adjuvants 1-12 as adjuvants for the herbicide fomesafen (as the sodium salt) were tested in a glasshouse against four weed species, sown into standard soil in pots and cultivated under controlled conditions in a glasshouse (at 24/18° C. day/night; 16 hours light, 65% humidity). Fomesafen sodium salt was added to the spray tank as a standard SL (soluble concentrate) formulation.
(§2) The spray tests were also carried out using fomesafen in conjunction with adjuvants 1-12. Unless otherwise stated, the adjuvants were added to the spray solution at a rate of 0.2% v/v. All spray solutions also contained 12.5% v/v of iso-Propanol to normalise the retention of the sprays on the hydrophobic plant surfaces. The weed species and their BBCH growth stage at spraying were Abutilon theophrasti (ABUTH; growth stage 12-13), Chenopodium album (CHEAL; growth stage 15), Ipomea hederacea (IPOHE; growth stage 12), and Setaria viridis (SETVI; growth stage 14). Each spray test was replicated three times. The test plants were then grown in a glasshouse under controlled conditions (at 24/18° C. day/night; 16 hours light; 65% humidity) and watered twice a day.
(§3) The efficacy of the herbicide was assessed visually and expressed as a percentage of the leaf area killed. Samples were assessed at a time period of 21 days following application. The results shown in Table 2 below are mean averages over the two rates of fomesafen, the three replicates […].

Structure (SMILES)	Mean % Herbicidal Activity SETVI
CCCCCCCCCCCCOc1cc(OCCOCCOCCOCCOCCOCCOCCOCCOCCOCCOC)ncn1 [Adjuvant 7]	45%
CCCCCCCCCCCCCCCCOc1cc(OCCOCCOCCOCCOCCOCCOCCOCCOCCOCCOC)ncn1 [Adjuvant 8]	17% and 65% and 13%
CCCCCCCCC=CCCCCCCCCOc1cc(OCCOCCOC)ncn1 [Adjuvant 9]	64%

Tested on: Ipomea hederacea (IPOHE)
Test: as above
Assay type: in vivo
Details: fomesafen sodium salt SL, mean over 100 and 200 g/ha and 3 replicates; adjuvant 0.2% v/v (none in No Adjuvant rows); % leaf area killed, 21 days after application; Tests 1-4 separate runs
Procedure: as §1, §2, §3

Structure (SMILES)	Mean % Herbicidal Activity IPOHE
CCCCCCCCCCCCOc1cc(OCCOCCOCCOCCOCCOCCOCCOCCOCCOCCOC)ncn1 [Adjuvant 7]	98%
CCCCCCCCCCCCCCCCOc1cc(OCCOCCOCCOCCOCCOCCOCCOCCOCCOCCOC)ncn1 [Adjuvant 8]	92% and 97% and 51%
CCCCCCCCC=CCCCCCCCCOc1cc(OCCOCCOC)ncn1 [Adjuvant 9]	88%

Tested on: Abutilon theophrasti (ABUTH)
Test: as above
Assay type: in vivo
Details: fomesafen sodium salt SL, mean over 100 and 200 g/ha and 3 replicates; adjuvant 0.2% v/v (none in No Adjuvant rows); % leaf area killed, 21 days after application; Tests 1-4 separate runs
Procedure: as §1, §2, §3

Structure (SMILES)	Mean % Herbicidal Activity ABUTH
CCCCCCCCCCCCOc1cc(OCCOCCOCCOCCOCCOCCOCCOCCOCCOCCOC)ncn1 [Adjuvant 7]	46%
CCCCCCCCCCCCCCCCOc1cc(OCCOCCOCCOCCOCCOCCOCCOCCOCCOCCOC)ncn1 [Adjuvant 8]	53% and 75% and 36%
CCCCCCCCC=CCCCCCCCCOc1cc(OCCOCCOC)ncn1 [Adjuvant 9]	52%

Tested on: Chenopodium album (CHEAL)
Test: as above
Assay type: in vivo
Details: fomesafen sodium salt SL, mean over 100 and 200 g/ha and 3 replicates; adjuvant 0.2% v/v (none in No Adjuvant rows); % leaf area killed, 21 days after application; Tests 1-4 separate runs
Procedure: as §1, §2, §3

Structure (SMILES)	Mean % Herbicidal Activity CHEAL
CCCCCCCCCCCCOc1cc(OCCOCCOCCOCCOCCOCCOCCOCCOCCOCCOC)ncn1 [Adjuvant 7]	94%
CCCCCCCCCCCCCCCCOc1cc(OCCOCCOCCOCCOCCOCCOCCOCCOCCOCCOC)ncn1 [Adjuvant 8]	78% and 65% and 73%
CCCCCCCCC=CCCCCCCCCOc1cc(OCCOCCOC)ncn1 [Adjuvant 9]	64%

Tested on: Alopecurus myosuroides (ALOMY)
Test: Adjuvant efficacy with pinoxaden, glasshouse spray test
Assay type: in vivo
Details: pinoxaden EC, mean over 7.5 and 15 g/ha and 3 replicates; adjuvant 0.2% v/v (none in No Adjuvant rows); % leaf area killed, 21 days after application; Tests 1-4 separate runs
Procedure: as §1, with “pinoxaden” for “fomesafen (as the sodium salt)”, “20/16°” for “24/18°”, “light;” for “light,”, “Pinoxaden” for “Fomesafen sodium salt”, “EC (emulsifiable” for “SL (soluble”
(§4) The spray tests were also carried out using pinoxaden in conjunction with adjuvants 1-12. The adjuvants were added to the spray solution at a rate of 0.2% v/v unless otherwise stated. All spray solutions also contained 10% w/w of iso-Propanol. The weed species and their BBCH growth stage at spraying were Avena fatua (AVEFA; growth stage 12), Lolium perenne (LOLPE; growth stage 13), Alopecurus myosuroides (ALOMY; growth stage 13), and Setaria viridis (SETVI; growth stage 13-14). Each spray test was replicated three times. The test plants were then grown in a glasshouse under controlled conditions (at 20/16° C. day/night; 16 hours light; 65% humidity) and watered twice a day. The efficacy of the herbicide was assessed visually and expressed as a percentage of the leaf area killed. Samples were assessed at a time period of 21 days following application. The results shown in Table 4 below are mean averages over the two rates of pinoxaden, and the three replicates.

Structure (SMILES)	Mean % Herbicidal Activity ALOMY
CCCCCCCCCCCCOc1cc(OCCOCCOCCOCCOCCOCCOCCOCCOCCOCCOC)ncn1 [Adjuvant 7]	63%
CCCCCCCCCCCCCCCCOc1cc(OCCOCCOCCOCCOCCOCCOCCOCCOCCOCCOC)ncn1 [Adjuvant 8]	2% and 15% and 22%
CCCCCCCCC=CCCCCCCCCOc1cc(OCCOCCOC)ncn1 [Adjuvant 9]	17%

Tested on: Avena fatua (AVEFA)
Test: as above
Assay type: in vivo
Details: pinoxaden EC, mean over 7.5 and 15 g/ha and 3 replicates; adjuvant 0.2% v/v (none in No Adjuvant rows); % leaf area killed, 21 days after application; Tests 1-4 separate runs
Procedure: as §1, with “pinoxaden” for “fomesafen (as the sodium salt)”, “20/16°” for “24/18°”, “light;” for “light,”, “Pinoxaden” for “Fomesafen sodium salt”, “EC (emulsifiable” for “SL (soluble”
as §4

Structure (SMILES)	Mean % Herbicidal Activity AVEFA
CCCCCCCCCCCCOc1cc(OCCOCCOCCOCCOCCOCCOCCOCCOCCOCCOC)ncn1 [Adjuvant 7]	98%
CCCCCCCCCCCCCCCCOc1cc(OCCOCCOCCOCCOCCOCCOCCOCCOCCOCCOC)ncn1 [Adjuvant 8]	94% and 78% and 84%
CCCCCCCCC=CCCCCCCCCOc1cc(OCCOCCOC)ncn1 [Adjuvant 9]	83%

Tested on: Setaria viridis (SETVI)
Test: as above
Assay type: in vivo
Details: pinoxaden EC, mean over 7.5 and 15 g/ha and 3 replicates; adjuvant 0.2% v/v (none in No Adjuvant rows); % leaf area killed, 21 days after application; Tests 1-4 separate runs
Procedure: as §1, with “pinoxaden” for “fomesafen (as the sodium salt)”, “20/16°” for “24/18°”, “light;” for “light,”, “Pinoxaden” for “Fomesafen sodium salt”, “EC (emulsifiable” for “SL (soluble”
as §4

Structure (SMILES)	Mean % Herbicidal Activity SETVI
CCCCCCCCCCCCOc1cc(OCCOCCOCCOCCOCCOCCOCCOCCOCCOCCOC)ncn1 [Adjuvant 7]	97%
CCCCCCCCCCCCCCCCOc1cc(OCCOCCOCCOCCOCCOCCOCCOCCOCCOCCOC)ncn1 [Adjuvant 8]	94% and 88% and 89%
CCCCCCCCC=CCCCCCCCCOc1cc(OCCOCCOC)ncn1 [Adjuvant 9]	91%

Tested on: Lolium perenne (LOLPE)
Test: as above
Assay type: in vivo
Details: pinoxaden EC, mean over 7.5 and 15 g/ha and 3 replicates; adjuvant 0.2% v/v (none in No Adjuvant rows); % leaf area killed, 21 days after application; Tests 1-4 separate runs
Procedure: as §1, with “pinoxaden” for “fomesafen (as the sodium salt)”, “20/16°” for “24/18°”, “light;” for “light,”, “Pinoxaden” for “Fomesafen sodium salt”, “EC (emulsifiable” for “SL (soluble”
as §4

Structure (SMILES)	Mean % Herbicidal Activity LOLPE
CCCCCCCCCCCCOc1cc(OCCOCCOCCOCCOCCOCCOCCOCCOCCOCCOC)ncn1 [Adjuvant 7]	78%
CCCCCCCCCCCCCCCCOc1cc(OCCOCCOCCOCCOCCOCCOCCOCCOCCOCCOC)ncn1 [Adjuvant 8]	87% and 42% and 73%
CCCCCCCCC=CCCCCCCCCOc1cc(OCCOCCOC)ncn1 [Adjuvant 9]	40%

Tested on: Setaria viridis (SETVI)
Test: Adjuvant efficacy with nicosulfuron, glasshouse spray test
Assay type: in vivo
Details: nicosulfuron WG, mean over 15 and 60 g/ha and 3 replicates; adjuvant 0.2% v/v (none in No Adjuvant rows); % leaf area killed, 21 days after application; Tests 1-4 separate runs
Procedure: (§5) The efficacy of adjuvants 1-12 as adjuvants for the herbicide nicosulfuron were tested in a glasshouse against four weed species sown into standard soil in pots and cultivated under controlled conditions in a glasshouse (at 24/18° C. day/night; 16 hours light; 65% humidity). Nicosulfuron was added to the spray tank as a standard WG (water dispersible granule) formulation.
(§6) The spray tests were also carried out using nicosulfuron in conjunction with adjuvants 1-12. The adjuvant was added to the spray solution at a rate of 0.2% v/v. All spray solutions also contained 12.5% v/v of iso-Propanol. The weed species and their BBCH growth stage at spraying were Abutilon theophrasti (ABUTH; growth stage 13), Chenopodium album (CHEAL; growth stage 13-14), Digitaria sanguinalis (DIGSA; growth stage 11), and Setaria viridis (SETVI; growth stage 13). Each spray test was replicated three times. The test plants were then grown in a glasshouse under controlled conditions (at 24/18° C. day/night; 16 hours light; 65% humidity) and watered twice a day. The efficacy of the herbicide was assessed visually and expressed as a percentage of the leaf area killed. Samples were assessed at a time period of 21 days following application. The results shown in Table 1 below are mean averages over the two rates of nicosulfuron, and the three replicates.

Structure (SMILES)	Mean % Herbicidal Activity SETVI
CCCCCCCCCCCCOc1cc(OCCOCCOCCOCCOCCOCCOCCOCCOCCOCCOC)ncn1 [Adjuvant 7]	96%
CCCCCCCCCCCCCCCCOc1cc(OCCOCCOCCOCCOCCOCCOCCOCCOCCOCCOC)ncn1 [Adjuvant 8]	96% (2×) and 95%
CCCCCCCCC=CCCCCCCCCOc1cc(OCCOCCOC)ncn1 [Adjuvant 9]	95%

Tested on: Digitaria sanguinalis (DIGSA)
Test: as above
Assay type: in vivo
Details: nicosulfuron WG, mean over 15 and 60 g/ha and 3 replicates; adjuvant 0.2% v/v (none in No Adjuvant rows); % leaf area killed, 21 days after application; Tests 1-4 separate runs
Procedure: as §5, §6

Structure (SMILES)	Mean % Herbicidal Activity DIGSA
CCCCCCCCCCCCOc1cc(OCCOCCOCCOCCOCCOCCOCCOCCOCCOCCOC)ncn1 [Adjuvant 7]	84%
CCCCCCCCCCCCCCCCOc1cc(OCCOCCOCCOCCOCCOCCOCCOCCOCCOCCOC)ncn1 [Adjuvant 8]	87% and 93% and 89%
CCCCCCCCC=CCCCCCCCCOc1cc(OCCOCCOC)ncn1 [Adjuvant 9]	88%

Tested on: Abutilon theophrasti (ABUTH)
Test: as above
Assay type: in vivo
Details: nicosulfuron WG, mean over 15 and 60 g/ha and 3 replicates; adjuvant 0.2% v/v (none in No Adjuvant rows); % leaf area killed, 21 days after application; Tests 1-4 separate runs
Procedure: as §5, §6

Structure (SMILES)	Mean % Herbicidal Activity ABUTH
CCCCCCCCCCCCOc1cc(OCCOCCOCCOCCOCCOCCOCCOCCOCCOCCOC)ncn1 [Adjuvant 7]	59%
CCCCCCCCCCCCCCCCOc1cc(OCCOCCOCCOCCOCCOCCOCCOCCOCCOCCOC)ncn1 [Adjuvant 8]	53% and 66% and 74%
CCCCCCCCC=CCCCCCCCCOc1cc(OCCOCCOC)ncn1 [Adjuvant 9]	57%

Tested on: Chenopodium album (CHEAL)
Test: as above
Assay type: in vivo
Details: nicosulfuron WG, mean over 15 and 60 g/ha and 3 replicates; adjuvant 0.2% v/v (none in No Adjuvant rows); % leaf area killed, 21 days after application; Tests 1-4 separate runs
Procedure: as §5, §6

Structure (SMILES)	Mean % Herbicidal Activity CHEAL
CCCCCCCCCCCCOc1cc(OCCOCCOCCOCCOCCOCCOCCOCCOCCOCCOC)ncn1 [Adjuvant 7]	86%
CCCCCCCCCCCCCCCCOc1cc(OCCOCCOCCOCCOCCOCCOCCOCCOCCOCCOC)ncn1 [Adjuvant 8]	85% (2×) and 83%
CCCCCCCCC=CCCCCCCCCOc1cc(OCCOCCOC)ncn1 [Adjuvant 9]	82%

Tested on: four weed species (ABUTH, CHEAL, IPOHE, SETVI)
Test: Adjuvant efficacy with fomesafen, glasshouse spray test, average over all species
Assay type: in vivo
Details: fomesafen sodium salt SL, mean over 100 and 200 g/ha, adjuvant 0.2% v/v (none in No Adjuvant rows), 21 days, average of ABUTH
Procedure: as §1, §2, §3

Structure (SMILES)	Mean % Herbicidal Activity Average over all Species
CCCCCCCCCCCCOc1cc(OCCOCCOCCOCCOCCOCCOCCOCCOCCOCCOC)ncn1 [Adjuvant 7]	71%
CCCCCCCCCCCCCCCCOc1cc(OCCOCCOCCOCCOCCOCCOCCOCCOCCOCCOC)ncn1 [Adjuvant 8]	60% and 75% and 43%
CCCCCCCCC=CCCCCCCCCOc1cc(OCCOCCOC)ncn1 [Adjuvant 9]	67%

Tested on: four weed species (ABUTH, CHEAL, DIGSA, SETVI)
Test: Adjuvant efficacy with nicosulfuron, glasshouse spray test, average over all species
Assay type: in vivo
Details: nicosulfuron WG, mean over 15 and 60 g/ha, adjuvant 0.2% v/v (none in No Adjuvant rows), 21 days, average of ABUTH
Procedure: as §5, §6

Structure (SMILES)	Mean % Herbicidal Activity Average over all Species
CCCCCCCCCCCCOc1cc(OCCOCCOCCOCCOCCOCCOCCOCCOCCOCCOC)ncn1 [Adjuvant 7]	81%
CCCCCCCCCCCCCCCCOc1cc(OCCOCCOCCOCCOCCOCCOCCOCCOCCOCCOC)ncn1 [Adjuvant 8]	80% and 85% and 86%
CCCCCCCCC=CCCCCCCCCOc1cc(OCCOCCOC)ncn1 [Adjuvant 9]	80%
